Test results as given in patent US6369049B1, “Treatment of mastitis” (Eli Lilly and Company, priority 1998, dated 2002).
Marks after values point to notes of the source that are not given here.

What was measured:
[1] = system: S. aureus ATCC 29213; assay: MIC vs. S. aureus ATCC 29213; format: cell-based, Staphylococcus aureus; parameters: unit not given beside the values; conditions: Incubated at 37° C. overnight
Source text: (§1) Tables 2 and 2a summarize the minimal inhibitory concentrations (MIC's) at which illustrative formula I compounds and cephalothin inhibit certain microorganisms that are associated with mastitis, such as Staphylococcus aureus 10092 (Newbould strain).

[2] = system: S. aureus 174 C; assay: MIC vs. S. aureus 174 C; format: cell-based, Staphylococcus aureus; parameters: unit not given beside the values; conditions: Incubated at 37° C. overnight
Source text: as §1

[3] = system: Staphylococcus aureus 10092 (Newbould strain); assay: MIC vs. S. aureus 10092 (Newbould strain); format: cell-based; parameters: unit not given beside the values; conditions: for MIC vs. S. aureus 10092: Table 2, incubated at 37° C. overnight; for MIC vs. Staphylococcus aureus 10,092: Table 2a
Source text: as §1

[4] = system: S. aureus F1C; assay: MIC vs. S. aureus F1C; format: cell-based, Staphylococcus aureus; parameters: unit not given beside the values; conditions: Incubated at 37° C. overnight
Source text: as §1

[5] = system: Streptococcus uberis 150 L; assay: MIC vs. Streptococcus uberis 150 L; format: cell-based; parameters: unit not given beside the values; conditions: Incubated at 37° C. overnight
Source text: as §1

[6] = system: Streptococcus uberis 166 L; assay: MIC vs. Streptococcus uberis 166 L; format: cell-based; parameters: unit not given beside the values; conditions: Incubated at 37° C. overnight
Source text: as §1

[7] = system: Streptococcus agalactiae 150 B; assay: MIC vs. Streptococcus agalactiae 150 B; format: cell-based; parameters: unit not given beside the values; conditions: Incubated at 37° C. overnight
Source text: as §1

[8] = system: Streptococcus dysgalactiae; assay: MIC vs. Streptococcus dysgalactiae; format: cell-based; parameters: unit not given beside the values; conditions: Incubated at 37° C. overnight
Source text: as §1

[9] = system: Staphylococcus aureus 10092 (Newbould); assay: Induced Staphylococcus aureus mastitis model in lactating goats; format: in vivo; conditions: S. aureus 10092 challenge, in peanut oil
Source text: Sixteen lactating goats were selected based on the absence of Staphylococcus aureus in pre-challenge milk cultures. Maintenance ration was provided to the animals throughout the study. The goats were milked twice each day using a portable goat milker.
Milk samples were collected during the morning milking. One day prior to challenge, milk culture samples were collected from each half of the test animals to determine if there was a pre-existing infection. Additionally, a sample was collected from each half for Somatic Cell Count (SCC) determination. A milk culture sample and a sample for SCC were collected from each half 24 hours post-challenge and on Days +4 to +6, +8, +11, +13, and +15.
Udder scoring was performed during each milking using the following table:
General health observations and body temperature were recorded once a day following milking during the challenge and treatment periods.
Milk samples were submitted for analysis for SCC using an electronic somatic cell counting system.
Milk culture samples were assayed for bacterial culture by plating 1.0 mL and 0.1 mL of the milk sample directly onto duplicate blood agar plates. Additionally, dilutions […] the milk sample were plated. Plates were incubated overnight at 37° C.
Staphylococcus aureus 10092 (Newbould) was used as the challenge strain. The challenge culture was grown in Tryptic Soy Broth (TSB) from a lyovial stock overnight (16 hours) at 37° C. TSB (100 mL) was inoculated with 1 mL of the overnight culture and incubated at 37° C. with shaking for 4 hours. The culture was centrifuged at 9000 rpm for 10 minutes at 10° C.; supernatant was removed and the pellet was resuspended in phosphate buffered saline (PBS). Optimum O.D. reading at 650 nm was approximately 0.035. A 10-fold dilution series was prepared with saline to determine the CFU/mL, plating 10^−5, 10^−6, and 10^−7 dilutions onto duplicate blood agar plates. The 10^−7 dilution (approximately 10 CFU/mL) was used for the challenge material, yielding a challenge of 50 CFU/half with a 5-mL infusion.
Sixteen goats were used for the trial. During a one day pre-challenge period, milk samples were collected and temperatures were taken during the morning milking. Milk/udder evaluations were documented during the morning and afternoon milkings.
Staphylococcus aureus 10092 was infused into both halves in each of the goats. The goats were challenged following the morning milking and milked in the afternoon on the day of challenge. The challenge inoculum volume was 5 mL/half containing approximately 50 CFU S. aureus.
For the 24 hr post-challenge period milk samples were collected during the morning milking, and milk/udder evaluations made during the morning and afternoon milking.
Treatment was started at 36 hours post-challenge. Milk samples were collected for culture and SCC 24 hours post-challenge, prior to the morning milking, and the treatment period started following the afternoon milking.
Eight halves (4 goats) each were treated for 2 consecutive milkings 12 hours apart, following milking. […]
Following treatment, the goats were milked and observed for 15 days. Milk samples were collected on Days +4 to +6, +8, +11, +13, and +15 to determine if the infection had cleared.
Establishment of mastitis was determined by bacterial culturing, severity of udder scoring, somatic cell count results, and body temperature.
On Days +2 to +6, milk samples were collected for a colorimetric assay to determine whether the antibiotic was still present in the milk.

[10] = system: Staphylococcus epidermidis 174B; assay: MIC vs. Staphylococcus epidermidis 174B; format: cell-based; parameters: unit not given beside the values; conditions: Table 2a
Source text: as §1

[11] = system: Staphylococcus aureus 168H; assay: MIC vs. Staphylococcus aureus 168H; format: cell-based; parameters: unit not given beside the values; conditions: Table 2a
Source text: as §1

[12] = system: Streptococcus agalactiae 150G; assay: MIC vs. Streptococcus agalactiae 150G; format: cell-based; parameters: unit not given beside the values; conditions: Table 2a
Source text: as §1

[13] = system: Streptococcus uberis 167I; assay: MIC vs. Streptococcus uberis 167I; format: cell-based; parameters: unit not given beside the values; conditions: Table 2a
Source text: as §1

[14] = system: Streptococcus dysgalactiae 152B; assay: MIC vs. Streptococcus dysgalactiae 152B; format: cell-based; parameters: unit not given beside the values; conditions: Table 2a
Source text: as §1

[15] = system: Staphylococcus aureus 170C; assay: MIC vs. Staphylococcus aureus 170C; format: cell-based; parameters: unit not given beside the values; conditions: Table 2a
Source text: as §1

[16] = system: Streptococcus faecalis; assay: MIC vs. Streptococcus faecalis; format: cell-based; parameters: unit not given beside the values; conditions: Table 2a
Source text: as §1

[17] = system: Pasteurella haemolytica 128K (bovine); assay: MIC vs. Pasteurella haemolytica 128K (bovine); format: cell-based; conditions: for MIC against Pasteurella haemolytica Strain 128K: Table 3a, incubated at 37° overnight
Source text: (§2) The formula I compounds are also active against certain Gram-negative species. Tables 3 and 3a show the MIC's of Formula I compounds against certain Gram-negative species.

[18] = system: Pasteurella multocida 108E (bovine); assay: MIC vs. Pasteurella multocida 108E (bovine); format: cell-based; conditions: Incubated at 37° C. overnight
Source text: as §2

[19] = system: Pasteurella multocida ATCC 12945; assay: MIC vs. Pasteurella multocida ATCC 12945; format: cell-based; conditions: Incubated at 37° C. overnight
Source text: as §2

[20] = system: Pasteurella multocida 1051 (swine); assay: MIC vs. Pasteurella multocida 1051 (swine); format: cell-based; conditions: Incubated at 37° C. overnight
Source text: as §2

[21] = system: Pasteurella multocida 10,102 (bovine); assay: MIC vs. Pasteurella multocida 10,102 (bovine); format: cell-based; conditions: Incubated at 37° C. overnight
Source text: as §2

[22] = system: Pasteurella haemolytica 114F (bovine); assay: MIC vs. Pasteurella haemolytica 114F (bovine); format: cell-based; conditions: Incubated at 37° C. overnight
Source text: as §2

[23] = system: Pasteurella haemolytica 129R (bovine); assay: MIC vs. Pasteurella haemolytica 129R (bovine); format: cell-based; conditions: Incubated at 37° C. overnight
Source text: as §2

[24] = system: Salmonella typhimurium; assay: MIC vs. Salmonella typhimurium; format: cell-based; conditions: Incubated at 37° C. overnight
Source text: as §2

[25] = system: Escherichia coli; assay: MIC vs. Escherichia coli; format: cell-based; parameters: unit not given beside the values; conditions: Incubated at 37° C. overnight
Source text: as §2

[26] = approximately 25 mg/5 mL dose per half, 2 consecutive milkings 12 hours apart

Structure (SMILES) | % Bacteriologic Cures [9, 26] [%] | MIC vs. Staphylococcus aureus 10,092 [3] | MIC vs. Staphylococcus epidermidis 174B [10] | MIC vs. Staphylococcus aureus 168H [11] | MIC vs. Streptococcus agalactiae 150G [12] | MIC vs. Streptococcus uberis 167I [13] | MIC vs. Streptococcus dysgalactiae 152B [14] | MIC vs. Staphylococcus aureus 170C [15] | MIC vs. Streptococcus faecalis [16] | MIC against Pasteurella haemolytica Strain 128K [17] | also measured
O=C(Cc1c(F)c(F)c(F)c(F)c1F)NC1C(=O)N2C(C(=O)O)=C(Cl)CSC12 (centres unmarked) [Compound 4] | – | – | – | – | – | – | – | – | – | – | MIC vs. S. aureus ATCC 29213 [1]: 1; MIC vs. S. aureus 174 C [2]: 1; MIC vs. S. aureus 10092 [3]: 0.5; MIC vs. S. aureus F1C [4]: 1; MIC vs. Streptococcus uberis 150 L [5]: 0.5; MIC vs. Streptococcus uberis 166 L [6]: 0.0156; MIC vs. Streptococcus agalactiae 150 B [7]: 0.5; MIC vs. Streptococcus dysgalactiae [8]: 0.0312
O=C(COc1c(F)c(F)c(C(F)(F)F)c(F)c1F)NC1C(=O)N2C(C(=O)O)=C(Cl)CSC12 (centres unmarked) [Compound 10] | 57 | – | – | – | – | – | – | – | – | – | –
O=C(COc1c(F)cc(F)cc1F)NC1C(=O)N2C(C(=O)O)=C(Cl)CSC12 (centres unmarked) [Compound 5] | 100 | 1 | 1 | 2 | 1 | 16 | 0.5 | 4 | 16 | 16 | –
O=C(COc1c(F)c(F)c(F)c(F)c1F)NC1C(=O)N2C(C(=O)O)=C(Cl)CCC12 (centres unmarked) [Compound 7] | 13 | 4 | 2 | 16 | 2 | 128 | 2 | 1 | >128 | 32 | –
O=C(COc1ccc(OC(F)(F)F)cc1)NC1C(=O)N2C(C(=O)O)=C(Cl)CSC12 (centres unmarked) [Compound 8] | 50 | 1 | 1 | 1 | 1 | 128 | 0.5 | <0.125 | 64 | 32 | –
O=C(COc1c(F)c(F)c(F)c(F)c1F)NC1C(=O)N2C(C(=O)O)=C(Cl)CSC12 (centres unmarked) [Compound 1] | – | – | – | – | – | – | – | – | – | – | MIC vs. S. aureus ATCC 29213 [1]: 0.5; MIC vs. S. aureus 174 C [2]: 0.5; MIC vs. S. aureus 10092 [3]: 0.25; MIC vs. S. aureus F1C [4]: 0.5; MIC vs. Streptococcus uberis 150 L [5]: 0.25; MIC vs. Streptococcus uberis 166 L [6]: 0.25; MIC vs. Streptococcus agalactiae 150 B [7]: 0.125; MIC vs. Streptococcus dysgalactiae [8]: 0.125; MIC vs. Pasteurella multocida 108E (bovine) [18]: 0.5; MIC vs. Pasteurella multocida ATCC 12945 [19]: 0.125; MIC vs. Pasteurella multocida 1051 (swine) [20]: 0.5; MIC vs. Pasteurella multocida 10,102 (bovine) [21]: 0.5; MIC vs. Pasteurella haemolytica 114F (bovine) [22]: 4; MIC vs. Pasteurella haemolytica 128K (bovine) ([17]; Table 3, incubated at 37° C. overnight): 4; MIC vs. Pasteurella haemolytica 129R (bovine) [23]: 4; MIC vs. Salmonella typhimurium [24]: >128; MIC vs. Escherichia coli [25]: >128; % Bacteriologic Cures ([9]; dosing was 100 mg/5 mL dose): 75* %
O=C(CSc1c(F)c(F)c(F)c(F)c1F)NC1C(=O)N2C(C(=O)O)=C(Cl)CSC12 (centres unmarked) [Compound 9] | 63 | 0.5 | 0.5 | 0.5 | 0.5 | 4 | 0.5 | 0.5 | 8 | 4 | –
O=C(COc1cc(F)cc(F)c1)NC1C(=O)N2C(C(=O)O)=C(Cl)CSC12 (centres unmarked) [Compound 6] | 75 | 0.5 | 0.5 | 2 | 0.5 | 32 | 0.25 | 4 | 32 | 4 | –
